From patent US9464120B2, “Compositions for treatment of celiac disease” (ImmusanT, Inc., priority 2008, dated 2016)
Square brackets hold non-standard residues; d marks the D form. Peptide text beside a SMILES is read from it. pGlu = O=C1CC[C@@H](C(=O)O)N1

Legend:
[1] = Pharmacokinetics after bolus intradermal injection in an adult rat; type: in vivo
Experimental: To improve their chemical stability and increase resistance to exopeptidases, peptides were synthesised as acetate salts of “capped” N-pyroglutamate, C-amide: NPL001 (SEQ ID NO:228), NPL002 (SEQ ID NO:229) and NPL003 (SEQ ID NO:230) 15mers or 16mers with glutamate at sites predicted to be deamidated by tTG. Indeed, capping extended the half-lives of peptides from 10-12 minutes for free peptides: NPL033, NPL038, and NPL034 (SEQ ID NOs:13, 320 and 321) after bolus intradermal injection of 0.9 mg in 0.1 ml in an adult rat to 26-28 minutes with N-pyroglutamate and C-amidation (SEQ ID NOs:228, 229 and 230) or 19-24 minutes with N-acetylation and C-amidation (SEQ ID NOs:231, 232, and 233), (see Table 4).

[2] = test system: CD4+ T cells specific for NPL001; assay: Proliferation of transferred CFSE labelled NPL001-specific CD4+ T cells after subcutaneous administration (adoptive transfer model); type: in vivo; conditions: previous mouse studies
From the text: The interaction between NPL001 (SEQ ID NO:228) and cognate T cells in vivo has been modelled by developing transgenic Black-6 mice expressing functional HLA-DR3 and -DQ2 (but not murine MHC Class II molecules) on antigen presenting cells (APC) who are transferred 3×10^6 CFSE labelled CD4^+ T cells specific for NPL001 (Chen Z., et al., 2006). The donor mouse (HH8-1) is transgenic for the NPL001-specific T cell receptor and human CD4 expressed on T cells, and also expresses HLA-DR3 DQ2 on APC. Overall 96% of the CD4^+ T cells in the HH8-1 mouse are clonal and specific for NPL001 (results not shown).
Four days after subcutaneous administration (in the hind foot hock) of an equimolar mixture of NPL001, NPL002 and NPL003 in 50 μl saline, spleen, gut-draining mesenteric lymph nodes (MLN) and the local draining popliteal lymph nodes (PLN) are harvested. Isolated mononuclear cells are stained for hCD4, and the T-cell receptor α- and β-chains expressed on the HH8-1 NPL001-specific T cells (Vα8 and Vβ8). Proliferation of transferred CFSE labelled cells is measured as the % CFSE^pos cells having undergone one or more division, as indicated by dilution of CFSE staining.

T1/2 half life ([1]; adult rat, intradermal bolus injection 0.9 mg in 0.1 ml saline of equimolar mixture): T1/2 28.20 minutes
AUC area under the curve (bioavailability) ([1]; rat, in vivo, 0.9 mg): AUC 89350
half-life ([1]; rat, in vivo, intradermal bolus injection, 0.9 mg, adult rat, intradermal bolus injection 0.9 mg in 0.1 ml saline of equimolar mixture, read-out: T1/2 half life): 26 to 28 min
SMILES: CC(C)C[C@H](NC(=O)[C@@H]1CCC(=O)N1)C(=O)N[C@@H](CCC(N)=O)C(=O)N1CCC[C@H]1C(=O)N[C@@H](Cc1ccccc1)C(=O)N1CCC[C@H]1C(=O)N[C@@H](CCC(N)=O)C(=O)N1CCC[C@H]1C(=O)N[C@@H](CCC(=O)O)C(=O)N[C@@H](CC(C)C)C(=O)N1CCC[C@H]1C(=O)N[C@@H](Cc1ccc(O)cc1)C(=O)N1CCC[C@H]1C(=O)N[C@@H](CCC(N)=O)C(=O)N1CCC[C@H]1C(=O)N[C@@H](CCC(N)=O)C(N)=O [NPL001, pyroELQPFPQPELPYPQPQ-amide] ([pGlu]LQPFPQPELPYPQPQ-NH2)
bioactivity in vivo of a single dose [2]: bioactive in vivo
